Assays:
[1] = Partition coefficient (logP); type: physicochemical; details: octanol/water
[2] = biological target: T1, Steryl-sulfatase (Homo sapiens) (UniProt P08842); assay: Inhibitory activity against estrone sulfatase relative to Estrone-3-sulfamate (EMATE)
T1 sequence (whole entry): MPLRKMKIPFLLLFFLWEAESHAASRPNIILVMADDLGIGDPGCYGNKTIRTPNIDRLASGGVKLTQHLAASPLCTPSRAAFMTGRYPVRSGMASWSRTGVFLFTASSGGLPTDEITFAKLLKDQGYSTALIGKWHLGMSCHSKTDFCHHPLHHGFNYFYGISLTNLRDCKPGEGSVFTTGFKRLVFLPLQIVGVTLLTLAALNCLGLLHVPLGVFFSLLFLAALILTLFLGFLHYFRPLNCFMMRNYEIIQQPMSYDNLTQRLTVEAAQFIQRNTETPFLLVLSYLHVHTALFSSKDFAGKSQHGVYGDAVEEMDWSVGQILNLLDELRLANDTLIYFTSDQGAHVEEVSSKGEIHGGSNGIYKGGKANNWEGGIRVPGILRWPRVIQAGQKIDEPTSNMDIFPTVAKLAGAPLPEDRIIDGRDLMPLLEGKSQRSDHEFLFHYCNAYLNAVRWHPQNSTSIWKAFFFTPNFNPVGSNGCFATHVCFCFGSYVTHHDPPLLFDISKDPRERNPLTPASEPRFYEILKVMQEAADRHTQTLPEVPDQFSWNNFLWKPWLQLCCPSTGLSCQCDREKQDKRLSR

[3] = biological target: T1, Steryl-sulfatase (Homo sapiens)
Description: Inhibitory activity against estrone sulfatase expressed as potency

[4] = biological target: T1, Steryl-sulfatase (Homo sapiens); assay: Inhibitory activity against estrone sulfatase relative to 4-Methylcoumarin-7-O-sulfamate derivative (COUMATE)

| SMILES | logP [1] | Potency [2] | Potency [4] | Potency [3] |
| --- | --- | --- | --- | --- |
| Cc1cc(=O)oc2cc(OS(N)(=O)=O)ccc12 | 1.7 | 0.0417 |  | 1 |
| CCCCCCCC(=O)c1ccc(OS(N)(=O)=O)cc1 | 3.7 | 0.0893 | 2.14 |  |
| NS(=O)(=O)Oc1ccc(C(=O)Cc2ccccc2)cc1 | 2.9 | 0.0152 | 0.364 |  |
| CCCCCCC(=O)c1ccc(OS(N)(=O)=O)cc1 | 3.3 | 0.1 | 2.4 |  |
| CCCCCCCCC(=O)c1ccc(OS(N)(=O)=O)cc1 | 4.1 | 0.147 | 3.53 |  |
| NS(=O)(=O)Oc1ccc(C(=O)c2ccccc2)cc1 | 2.9 | 0.0079 | 0.191 |  |
| NS(=O)(=O)Oc1ccc(C(=O)/C=C/c2ccccc2)cc1 | 3.4 | 0.0019 | 0.0456 |  |
| C[C@]12CC[C@@H]3c4ccc(OS(N)(=O)=O)cc4CCC3[C@@H]1CCC2=O (single isomer, unassigned) [EMATE] | 3.9 |  | 24 | 1 |
| CCCCCCCCCC(=O)c1ccc(OS(N)(=O)=O)cc1 | 4.4 | 0.0385 | 0.923 |  |

Second part, led by results:

| logP [1] | Potency [2] | Potency [4] | SMILES | Potency [3] |
| --- | --- | --- | --- | --- |
| 2.1 | 0.0126 | 0.301 | CCCC(=O)c1ccc(OS(N)(=O)=O)cc1 |  |
| 1.4 | 0.0019 | 0.0472 | NS(=O)(=O)Oc1ccc(C=O)cc1 |  |
| 1.1 | 0.0016 | 0.0397 | CC(=O)c1ccc(OS(N)(=O)=O)cc1 |  |
| 2.5 | 0.0239 | 0.574 | CCCCC(=O)c1ccc(OS(N)(=O)=O)cc1 |  |

From ChEMBL document CHEMBL1134811, “Hydrophobicity, a physicochemical factor in the inhibition of the enzyme estrone sulfatase (ES)” (Bioorg Med Chem Lett, 2001)
